Tested on: rabbit skeletal myofibrils (fast skeletal myofibrils)
Assay: Activation of fast skeletal myofibrils (PUMA assay, AC1.4)
Type: biochemical
Conditions: calcium at pCa25, AC1.4 = concentration at which the compound increased the enzymatic activity
Outline: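 Detergent-washed rabbit psoas myofibrils (~90% fast fibers), calcium set to give 25% of maximal rate (pCa25). ATPase followed by pyruvate kinase/lactate dehydrogenase-coupled NADH oxidation, absorbance at 340 nm. PM12 buffer: 12 mM PIPES, 2 mM MgCl2, 1 mM DTT, pH 6.8.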

SMILES | AC1.4 [µM]
CC[C@H](C)[C@H]1C(=O)Nc2ccccc2CN1C(=O)N[C@H]1CCC(=O)NC1 [Compound 219, (S)-3-((S)-sec-butyl)-2-oxo-N-((S)-6-oxopiperidin-3-yl)-1,2,3,5-tetrahydro-4H-benzo[e][1,4]diazepine-4-carboxamide] | 2.10
CC[C@H](C)[C@H]1C(=O)Nc2ccccc2CN1C(=O)NCCS(C)(=O)=O [Compound 220, (S)-3-((S)-sec-butyl)-N-(2-(methylsulfonyl)ethyl)-2-oxo-1,2,3,5-tetrahydro-4H-benzo[e][1,4]diazepine-4-carboxamide] | 3.01
CC[C@H](C)[C@H]1C(=O)Nc2ccccc2CN1C(=O)NCCS(N)(=O)=O [Compound 221, (S)-3-((S)-sec-butyl)-2-oxo-N-(2-sulfamoylethyl)-1,2,3,5-tetrahydro-4H-benzo[e][1,4]diazepine-4-carboxamide] | 1.80
CC[C@H](C)[C@H]1C(=O)Nc2ccccc2CN1C(=O)NCCN1CC[C@@H](O)C1 [Compound 222, (S)-3-((S)-sec-butyl)-N-(2-((R)-3-hydroxypyrrolidin-1-yl)ethyl)-2-oxo-1,2,3,5-tetrahydro-4H-benzo[e][1,4]diazepine-4-carboxamide] | 2.02
CC[C@H](C)[C@H]1C(=O)Nc2ccccc2CN1C(=O)NCCN1CC[C@H](O)C1 [Compound 223, (S)-3-((S)-sec-butyl)-N-(2-((S)-3-hydroxypyrrolidin-1-yl)ethyl)-2-oxo-1,2,3,5-tetrahydro-4H-benzo[e][1,4]diazepine-4-carboxamide] | 1.43
CC[C@H](C)[C@H]1C(=O)Nc2ccccc2CN1C(=O)NC1CCS(=O)(=O)C1 (stereo partly drawn) [Compound 224, (3S)-3-((S)-sec-butyl)-N-(1,1-dioxoidotetrahydrothiophen-3-yl)-2-oxo-1,2,3,5-tetrahydro-4H-benzo[e][1,4]diazepine-4-carboxamide] | 2.85
CC[C@H](C)[C@H]1C(=O)Nc2ccccc2CN1C(=O)N(C)CCO [Compound 225, (S)-3-((S)-sec-butyl)-N-(2-hydroxyethyl)-N-methyl-2-oxo-1,2,3,5-tetrahydro-4H-benzo[e][1,4]diazepine-4-carboxamide] | 1.67
CC[C@H](C)[C@H]1C(=O)Nc2ccccc2CN1C(=O)N1CCNCC1 [Compound 226, (S)-3-((S)-sec-butyl)-4-(piperazine-1-carbonyl)-1,3,4,5-tetrahydro-2H-benzo[e][1,4]diazepin-2-one] | 3.91
CC[C@H](C)[C@H]1C(=O)Nc2ccccc2CN1C(=O)N1CCC(O)C1 (stereo partly drawn) [Compound 227, (3S)-3-((S)-sec-butyl)-4-(3-hydroxypyrrolidine-1-carbonyl)-1,3,4,5-tetrahydro-2H-benzo[e][1,4]diazepin-2-one] | 2.29
CC[C@H](C)[C@H]1C(=O)Nc2ccccc2CN1C(=O)N(C)CC(N)=O [Compound 228, (S)-N-(2-amino-2-oxoethyl)-3-((S)-sec-butyl)-N-methyl-2-oxo-1,2,3,5-tetrahydro-4H-benzo[e][1,4]diazepine-4-carboxamide] | 3.76
CC[C@H](C)[C@H]1C(=O)Nc2ccccc2CN1C(=O)N1CCNC(=O)C1 [Compound 229, (S)-3-((S)-sec-butyl)-4-(3-oxopiperazine-1-carbonyl)-1,3,4,5-tetrahydro-2H-benzo[e][1,4]diazepin-2-one] | 3.74
CC[C@H](C)[C@H]1C(=O)Nc2ccccc2CN1C(=O)N1CCN(C)CC1 [Compound 230, (S)-3-((S)-sec-butyl)-4-(4-methylpiperazine-1-carbonyl)-1,3,4,5-tetrahydro-2H-benzo[e][1,4]diazepin-2-one] | 1.31
CC[C@H](C)[C@H]1C(=O)Nc2ccccc2CN1C(=O)N1CCN[C@@H](C)C1 [Compound 231, (S)-3-((S)-sec-butyl)-4-((S)-3-methylpiperazine-1-carbonyl)-1,3,4,5-tetrahydro-2H-benzo[e][1,4]diazepin-2-one] | 4.86
CC[C@H](C)[C@H]1C(=O)Nc2ccccc2CN1C(=O)N[C@@H](C)C(=O)NC [Compound 232, (S)-3-((S)-sec-butyl)-N-((S)-1-(methylamino)-1-oxopropan-2-yl)-2-oxo-1,2,3,5-tetrahydro-4H-benzo[e][1,4]diazepine-4-carboxamide] | 3.47
CC[C@H](C)[C@H]1C(=O)Nc2ccccc2CN1C(=O)N(C)c1cnccn1 [Compound 233, (S)-3-((S)-sec-butyl)-N-methyl-2-oxo-N-(pyrazin-2-yl)-1,2,3,5-tetrahydro-4H-benzo[e][1,4]diazepine-4-carboxamide] | 2.16
CC[C@H](C)[C@H]1C(=O)Nc2ccccc2CN1C(=O)N1CCC(N(C)C)C1 (stereo partly drawn) [Compound 234, (3S)-3-((S)-sec-butyl)-4-(3-(dimethylamino)pyrrolidine-1-carbonyl)-1,3,4,5-tetrahydro-2H-benzo[e][1,4]diazepin-2-one] | 4.64

SMILES | AC1.4 [µM]
CC[C@H](C)[C@H]1C(=O)Nc2ccccc2CN1C(=O)N(C)C1CCN(C)C1 (stereo partly drawn) [Compound 235, (3S)-3-((S)-sec-butyl)-N-methyl-N-(1-methylpyrrolidin-3-yl)-2-oxo-1,2,3,5-tetrahydro-4H-benzo[e][1,4]diazepine-4-carboxamide] | 1.45
CC[C@H](C)[C@H]1C(=O)Nc2ccccc2CN1C(=O)N1CCC[C@H]1C(=O)O [Compound 236, ((S)-3-((S)-sec-butyl)-2-oxo-2,3,4,5-tetrahydro-1H-benzo[e][1,4]diazepine-4-carbonyl)-L-proline] | 3.43
CC[C@H](C)[C@H]1C(=O)Nc2ccccc2CN1C(=O)N(C)Cc1coc(C)n1 [Compound 237, (S)-3-((S)-sec-butyl)-N-methyl-N-((2-methyloxazol-4-yl)methyl)-2-oxo-1,2,3,5-tetrahydro-4H-benzo[e][1,4]diazepine-4-carboxamide] | 1.86
CC[C@H](C)[C@H]1C(=O)Nc2ccccc2CN1C(=O)N1CCCC(C(N)=O)C1 (stereo partly drawn) [Compound 238, 1-((S)-3-((S)-sec-butyl)-2-oxo-2,3,4,5-tetrahydro-1H-benzo[e][1,4]diazepine-4-carbonyl)piperidine-3-carboxamide] | 4.49
CC[C@H](C)[C@H]1C(=O)Nc2ccccc2CN1C(=O)N1CCC(N(C)C)CC1 [Compound 239, (S)-3-((S)-sec-butyl)-4-(4-(dimethylamino)piperidine-1-carbonyl)-1,3,4,5-tetrahydro-2H-benzo[e][1,4]diazepin-2-one] | 1.65
CC[C@H](C)[C@H]1C(=O)Nc2ccccc2CN1C(=O)N(C)CCS(C)(=O)=O [Compound 240, (S)-3-((S)-sec-butyl)-N-methyl-N-(2-(methylsulfonyl)ethyl)-2-oxo-1,2,3,5-tetrahydro-4H-benzo[e][1,4]diazepine-4-carboxamide] | 2.87
CC[C@H](C)[C@H]1C(=O)Nc2ccccc2CN1C(=O)N1CCCn2c(C)nnc21 [Compound 241, (S)-3-((S)-sec-butyl)-4-(3-methyl-5,6,7,8-tetrahydro-[1,2,4]triazolo[4,3-a]pyrimidine-8-carbonyl)-1,3,4,5-tetrahydro-2H-benzo[e][1,4]diazepin-2-one] | 1.35
CC[C@H](C)[C@H]1C(=O)Nc2ccccc2CN1C(=O)N1CCC(N(C)C(C)=O)C1 (stereo partly drawn) [Compound 242, N-(1-((S)-3-((S)-sec-butyl)-2-oxo-2,3,4,5-tetrahydro-1H-benzo[e][1,4]diazepine-4-carbonyl)pyrrolidin-3-yl)-N-methylacetamide] | 4.30
CC[C@H](C)[C@H]1C(=O)Nc2ccccc2CN1C(=O)N1CCN(C(=O)OC)CC1 [Compound 243, methyl 4-((S)-3-((S)-sec-butyl)-2-oxo-2,3,4,5-tetrahydro-1H-benzo[e][1,4]diazepine-4-carbonyl)piperazine-1-carboxylate] | 1.93
CC[C@H](C)[C@H]1C(=O)Nc2ccccc2CN1C(=O)N1CCCC1c1nc(C)no1 (stereo partly drawn) [Compound 244, (3S)-3-((S)-sec-butyl)-4-(2-(3-methyl-1,2,4-oxadiazol-5-yl)pyrrolidine-1-carbonyl)-1,3,4,5-tetrahydro-2H-benzo[e][1,4]diazepin-2-one] | 2.43
CC[C@H](C)[C@H]1C(=O)Nc2ccccc2CN1C(=O)N1CCC2(CC1)CNC(=O)C2 [Compound 245, (S)-3-((S)-sec-butyl)-4-(3-oxo-2,8-diazaspiro[4.5]decane-8-carbonyl)-1,3,4,5-tetrahydro-2H-benzo[e][1,4]diazepin-2-one] | 3.88
CC[C@H](C)[C@H]1C(=O)Nc2ccccc2CN1C(=O)N1CCN(S(C)(=O)=O)CC1 [Compound 246, (S)-3-((S)-sec-butyl)-4-(4-(methylsulfonyl)piperazine-1-carbonyl)-1,3,4,5-tetrahydro-2H-benzo[e][1,4]diazepin-2-one] | 1.64
CC[C@H](C)[C@H]1C(=O)Nc2ccccc2CN1C(=O)N1CCC[C@H](NS(C)(=O)=O)C1 [Compound 247, N-((S)-1-((S)-3-((S)-sec-butyl)-2-oxo-2,3,4,5-tetrahydro-1H-benzo[e][1,4]diazepine-4-carbonyl)piperidin-3-yl)methanesulfonamide] | 2.49
CC[C@H](C)[C@H]1C(=O)Nc2ccccc2CN1C(=O)N1CCC[C@@H](NS(C)(=O)=O)C1 [Compound 248, N-((R)-1-((S)-3-((S)-sec-butyl)-2-oxo-2,3,4,5-tetrahydro-1H-benzo[e][1,4]diazepine-4-carbonyl)piperidin-3-yl)methanesulfonamide] | 3.71
CC[C@H](C)[C@H]1C(=O)Nc2ccccc2CN1C(=O)N1CC(C(=O)O)C1 [Compound 249, 1-((S)-3-((S)-sec-butyl)-2-oxo-2,3,4,5-tetrahydro-1H-benzo[e][1,4]diazepine-4-carbonyl)azetidine-3-carboxylic acid] | 4.51
CC[C@H](C)[C@H]1C(=O)Nc2ccccc2CN1C(=O)N1CC(C(N)=O)C1 [Compound 250, 1-((S)-3-((S)-sec-butyl)-2-oxo-2,3,4,5-tetrahydro-1H-benzo[e][1,4]diazepine-4-carbonyl)azetidine-3-carboxamide] | 0.60
